The nature of this data set: Separate experiment: dissolving and recrystallizing in a solvent (crystal form / salt stability). It counts as physicochemical.

In the case of `CNC(=O)c1cc(Oc2ccc(NC(=O)Nc3ccc(Cl)c(C(F)(F)F)c3)cc2)ccn1.Cc1ccc(S(=O)(=O)O)cc1` [Sorafenib tosylate III], the “crystal form and salt stability on recrystallization” value is “crystal form change and partial generation of free base compound by loss of tosylate salt”.

For the origin of these results see patent publication US20190091165A1, “METHOD FOR PREPARING NANOPARTICLE OF ACTIVE INGREDIENT USING LIPID AS LUBRICANT IN MILLING PROCESS” (BIO-SYNECTICS INC., priority 2017, published 2019).
